Here are results for eight molecules from patent US11357840B2, “Methods and compositions for reducing growth, migration and invasiveness of brain cancer stem cells and improving survival of patients with brain tumors” (HYPERSTEM SA, priority 2014, dated 2022).

No end group written: not given here. *: point of attachment. Boc = CC(C)(C)OC(=O)*; For = O=C*

Assay [1] concerns growth factor independent (GFI) hGBM TPCs. Put plainly: Matrigel invasion assay, GFI TPCs. It counts as cell-based, human. The source says:
Invasion Assays—Matrigel Invasion Assays
An Invasion Assay is an in vitro system to study invasion capability of malignant and normal cells. Specific applications include assessment of the metastatic potential of tumor cells, inhibition of metastasis by extracellular matrix components or antineoplastic drugs, altered expression of cell surface proteins, or matrix metalloproteinases in metastatic cells; and invasion of normal cells such as embryonic stem cells, cytotrophoblasts, endothelial cells, and fibroblasts.
According to one embodiment, the following Matrigel invasion assay protocol is one example of an invasion assay. A coating buffer is prepared and a Matrigel Matrix aliquot is thawed at 4° C. Then, a coating solution is prepared by mixing the Matrigel Matrix with the coating buffer. A number of permeable supports are transferred into the wells of a 24-well plate and 100 ul of the diluted Matrigel is put into each well of the 24-well plate. The plate is then incubated with the coated permeable support at 37° C. for 2 h for gelling. Cells are cultured and prepared for the invasion assay, for example, growth factor dependent hGBM tumor-propagating cells with stem-like characteristic (GFD TPCs) are pretreated with saturating concentrations of recombinant Wnt5a protein (GFD+R5); lentiviral-mediated over-expression GFD cells (GFD+LV5); growth factor independent (GFI) TPCs are treated with saturating concentrations of a Wnt5a-blocking antibody (AbW5) or of a recombinant Wnt3a protein (R3) or of a recombinant secreted frizzled-related protein 1 (SFRP1), or GFI TPCs exposed to Wnt5a-derived peptides termed Box5 (SEQ ID NO: 1), Peptide A (SEQ ID NO: 2) and Peptide B (SEQ ID NO: 3) Cell suspensions are prepared in culture medium containing 5×10^4 cells/mL for the 24 well invasion chambers. An aliquot of 0.5 mL of cell suspension (2.5×10^4 cells) is then added to each 24 well invasion chamber. A chemoattractant is added to the wells of the plate (such as fibronectin as an adhesive substrate). The Cell invasion chambers are then incubated overnight in a humidified tissue culture incubator at 37° C., 5% CO2 atmosphere. The noninvaded cells on the top of the Matrigel coated permeable support are scraped off with a cotton swab. Then the permeable supports from 24-well plates are removed and stained with a cell staining solution and the invaded cells are counted under a light microscope.

The next assay concerns GFI or GFD TPCs. Put plainly: Growth kinetics (expansion) of TPCs. It counts as cell-based, human. As to conditions: FIG. 16g.
The test system of assay [2] is hGBM TPC-derived tumors (GFI / GFD TPCs). Put plainly: Orthotopic implantation of luciferase-tagged TPCs into SCID mice. As to conditions: for tumor growth (luc-TPC signal, time course): GFI cells treated in culture prior to transplantation (pre-treatment), SCID mice, FIG. 18c; for tumor growth (luc-TPC signals, time course): co-injection (co-treatment) with either GFD or GFI TPCs, FIGS. 18e and 18f; for tumor spread through the brain parenchyma (luciferase immunolabeling): luc-GFI pre-treated vs untreated GFI TPCs, FIG. 18d. It counts as in vivo, mouse (SCID). The protocol: Evaluation of Tumorigenic Ability and Invasiveness In Vivo by Orthotopic Implantation
Tumorigenicity was determined by injecting tumor cells into immunodeprived adult severe combined immunodeficiency (SCID) mice. (Galli et al., Cancer Res. 2004, 65:7011-7021). Tumor cells, for example, GFI TPCs, GFD TPCs, GFI TPCs pretreated with Box5 (SEQ ID NO: 1), GFI TPCs pretreated with PeptideA (SEQ ID NO: 2) were injected into SCID mice orthotopically to evaluate the tumorigenic ability and invasiveness in vivo. Also, GFD or GFI TPCs and Wnt5a-blocking protein (AbWt), alone or in combination with BMP4 (B4), Box5 (SEQ ID NO: 1) and PeptideA (SEQ ID NO: 2) were co-injected into the SCID mice.
Mice were sacrificed at different times. Serial histological reconstruction of mouse brain sections were immunolabeled for luciferase for evaluation.
Results from in vivo experiments were all subjected to statistical analysis. Survival curves were estimated using the Kaplan-Meier method.

For a further assay, the system named is 4T1 breast cancer cells. As to conditions: in vitro; Safholm et al. 2008; cited from earlier work.
A further assay deals with melanoma cells. As to conditions: Jenei et al. 2009; cited from earlier work.
For assay [3], the system named is growth factor dependent hGBM TPCs (GFD TPCs). Put plainly: Matrigel invasion assay, GFD TPCs. As to conditions: GFD cells treated with saturating concentrations (GFD+R5); FIG. 16a. It counts as cell-based, human. The protocol:
According to one embodiment, the following Matrigel invasion assay protocol is one example of an invasion assay. A coating buffer is prepared and a Matrigel Matrix aliquot is thawed at 4° C. Then, a coating solution is prepared by mixing the Matrigel Matrix with the coating buffer. A number of permeable supports are transferred into the wells of a 24-well plate and 100 ul of the diluted Matrigel is put into each well of the 24-well plate. The plate is then incubated with the coated permeable support at 37° C. for 2 h for gelling. […] Then the permeable supports from 24-well plates are removed and stained with a cell staining solution and the invaded cells are counted under a light microscope. […]

Setting [4] is: GFI TPCs exposed to Wnt5a-derived peptides, FIGS. 16c and 16d.
Where [5] appears, read: saturating concentrations, FIG. 16b.

For the molecule “LECGDM [Peptide A, hexapeptide LECGDM, peptide derivative of Box5]”, the “invasiveness of GFI TPCs” value in assay [1] (setting [4]) is on record as “decreased the invasiveness of GFI TPCs in a dose-dependent fashion”. In the assay with GFI or GFD TPCs, the “ability of GFI or GFD TPCs to expand (slope of the growth curves)” value (“ability … (slope of the growth curves)” below) is recorded as “negligible effects”. In assay [2], the “tumor growth (luc-TPC signal, time course)” value is “tumor growth is decreased”; the “tumor growth (luc-TPC signals, time course)” value was “inhibited”; the “tumor spread through the brain parenchyma (luciferase immunolabeling)” value is reported as “spread through the brain parenchyma less”.
On to “Leu-Glu-Gly-Asp-Met (LEGDM) [Peptide B, pentapeptide LEGDM, peptide derivative of Box5]”, for which, in assay [1] (setting [4]), the “invasiveness of GFI TPCs” value is recorded as “decreased the invasiveness of GFI TPCs in a dose-dependent fashion”.
For-MDGCEL [Foxy-5, reference compound]: in the assay on 4T1 breast cancer cells, the “apoptosis or proliferation of 4T1 breast cancer cells” value is “without affecting”; the “migration and invasion of 4T1 breast cancer cells” value was “impaired migration and invasion”.
As for “t-butoxycarbonyl-Met-Asp-Gly-Cys-Glu-Leu (Boc-MDGCEL) [Box5, Wnt5a-derived hexapeptide MDGCEL, antagonist of Wnt5a, modified from Foxy-5, reference compound]”, the “invasiveness of GFI TPCs” value in assay [1] (setting [4]) is recorded as “decreased the invasiveness of GFI TPCs in a dose-dependent fashion”. Further, the “ability … (slope of the growth curves)” value in the assay on GFI or GFD TPCs is “negligible effects”. Also, in the assay on melanoma cells, the “antagonism of Wnt5a-mediated migration and invasion of melanoma cells” value is listed as “potent, selective antagonist”. For the same molecule, in assay [2], the “tumor growth (luc-TPC signal, time course)” value was “tumor growth is decreased”; the “tumor growth (luc-TPC signals, time course)” value is given as “inhibited”; the “tumor spread through the brain parenchyma (luciferase immunolabeling)” value is “spread through the brain parenchyma less”.

B1: recombinant Wnt3a protein: recombinant Wnt3a protein (R&D Systems) (protein, UniProt P56704 19-352, looked up)
Protein Wnt-3a: SYPIWWSLAVGPQYSSLGSQPILCASIPGLVPKQLRFCRNYVEIMPSVAEGIKIGIQECQHQFRGRRWNCTTVHDSLAIFGPVLDKATRESAFVHAIASAGVAFAVTRSCAEGTAAICGCSSRHQGSPGKGWKWGGCSEDIEFGGMVSREFADARENRPDARSAMNRHNNEAGRQAIASHMHLKCKCHGLSGSCEVKTCWWSQPDFRAIGDFLKDKYDSASEMVVEKHRESRGWVETLRPRYTYFKVPTERDLVYYEASPNFCEPNPETGSFGTRDRTCNVSSHGIDGCDLLCCGRGHNARAERRREKCRCVFHWCCYVSCQECTRVYDVHTCK
Turning to B1, the “invasiveness of GFI TPCs” value in assay [1] (setting [5]) is “decreased the invasiveness”.

B2: BMP4: bone morphogenetic protein 4, positive control (protein, UniProt P12644 293-408, looked up)
Bone morphogenetic protein 4: SPKHHSQRARKKNKNCRRHSLYVDFSDVGWNDWIVAPPGYQAFYCHGDCPFPLADHLNSTNHAIVQTLVNSVNSSIPKACCVPTELSAISMLYLDEYDKVVLKNYQEMVVEGCGCR
With B2, the “ability … (slope of the growth curves)” value in the assay with GFI or GFD TPCs is on record as “significantly triggered negative deviations from the growth kinetics”.

B3: SFRP1: recombinant secreted frizzled-related protein 1, an endogenous Wnt antagonist (protein, UniProt Q8N474 32-314, looked up)
Secreted frizzled-related …: SEYDYVSFQSDIGPYQSGRFYTKPPQCVDIPADLRLCHNVGYKKMVLPNLLEHETMAEVKQQASSWVPLLNKNCHAGTQVFLCSLFAPVCLDRPIYPCRWLCEAVRDSCEPVMQFFGFYWPEMLKCDKFPEGDVCIAMTPPNATEASKPQGTTVCPPCDNELKSEAIIEHLCASEFALRMKIKEVKKENGDKKIVPKKKKPLKLGPIKKKDLKKLVLYLKNGADCPCHQLDNLSHHFLIMGRKVKSQYLLTAIHKWDKKNKEFKNFMKKMKNHECPTFQSVFK
Regarding B3, the “invasiveness of GFI TPCs” value in assay [1] (setting [5]) is “decreased the invasiveness”.

B4: recombinant Wnt5a protein: recombinant Wnt5a protein (protein)
chain: IIGAQPLCSQLAGLSQGQKKLCHLYQDHMQYIGEGAKTGIKECQYQFRHRRWNCSTVDNTSVFGRVMQIGSRETAFTYAVSAAGVVNAMSRACREGELSTCGCSRAARPKDLPRDWLWGGCGDNIDYGYRFAKEFVDARERERIHAKGSYESARILMNLHNNEAGRRTVYNLADVACKCHGVSGSCSLKTCWLQLADFRKVGDALKEKYDSAAAMRLNSRGKLVQVNSRFNSPTTQDLVYIDPSPDYCVRNESTGSLGTQGRLCNKTSEGMDGCELMCCGRGYDQFKTVQTERCHCKFHWCCYVKCKKCTEIVDQFVCK
With B4, the “cell migration of GFD cells” value in assay [3] is “increase in cell migration”. Also, in the assay with 4T1 breast cancer cells, the “apoptosis or proliferation of 4T1 breast cancer cells” value was “without affecting”; the “migration and invasion of 4T1 breast cancer cells” value is “impaired migration and invasion”.
